Measured values: the NIST ThermoML archive (doi:10.1016/j.fluid.2014.03.003)
± gives the expanded uncertainty stated by the source.

Conditions: Liquid, Closed cell (Static) method

Structure (SMILES)	vapor or sublimation pressure (303.15 K) [kPa]	vapor or sublimation pressure (308.15 K) [kPa]	vapor or sublimation pressure (313.15 K) [kPa]	vapor or sublimation pressure (318.15 K) [kPa]	vapor or sublimation pressure (323.15 K) [kPa]	vapor or sublimation pressure (328.15 K) [kPa]	vapor or sublimation pressure (333.15 K) [kPa]	vapor or sublimation pressure (338.15 K) [kPa]	vapor or sublimation pressure (343.15 K) [kPa]	vapor or sublimation pressure (348.15 K) [kPa]	vapor or sublimation pressure (358.15 K) [kPa]	vapor or sublimation pressure (368.15 K) [kPa]	vapor or sublimation pressure (378.15 K) [kPa]	vapor or sublimation pressure (353.15 K) [kPa]	vapor or sublimation pressure (363.15 K) [kPa]	vapor or sublimation pressure (373.15 K) [kPa]	vapor or sublimation pressure (383.15 K) [kPa]	vapor or sublimation pressure (393.15 K) [kPa]	vapor or sublimation pressure (403.15 K) [kPa]	also measured
Cc1ccccc1 [toluene]	4.905 ± 0.022	6.257 ± 0.024	7.963 ± 0.026	9.959 ± 0.034	12.31 ± 0.032	15.14 ± 0.041	18.86 ± 0.057	22.61 ± 0.05	27.31 ± 0.059	32.72 ± 0.071	46.17 ± 0.091	63.84 ± 0.12	86.25 ± 0.16	–	–	–	–	–	–	–
Cc1ccccc1C [1,2-dimethylbenzene]	–	–	2.052 ± 0.035	–	3.456 ± 0.022	–	5.613 ± 0.047	–	8.542 ± 0.051	–	–	–	31.66 ± 0.091	12.73 ± 0.04	18.65 ± 0.057	26.73 ± 0.076	37.35 ± 0.1	51.01 ± 0.14	68.42 ± 0.18	vapor or sublimation pressure (388.15 K): 43.63 ± 0.12 kPa; vapor or sublimation pressure (413.15 K): 90.18 ± 0.24 kPa
Cc1cccc(C)c1 [1,3-dimethylbenzene]	–	2.631 ± 0.045	3.524 ± 0.028	4.372 ± 0.036	5.37 ± 0.045	6.496 ± 0.037	7.75 ± 0.038	9.305 ± 0.035	11.12 ± 0.036	–	–	–	–	15.97 ± 0.048	22.76 ± 0.058	32.06 ± 0.079	44.23 ± 0.11	–	80.2 ± 0.16	–
c1ccccc1 [benzene]	15.85 ± 0.035	19.71 ± 0.05	24.3 ± 0.052	29.73 ± 0.063	36.09 ± 0.069	43.51 ± 0.082	52.11 ± 0.11	62.01 ± 0.11	73.35 ± 0.13	86.27 ± 0.15	–	–	–	100.91 ± 0.17	–	–	–	–	–	vapor or sublimation pressure (293.15 K): 9.983 ± 0.027 kPa; vapor or sublimation pressure (298.15 K): 12.64 ± 0.037 kPa
Cc1ccc(C)cc1 [1,4-dimethylbenzene]	1.562 ± 0.031	–	2.49 ± 0.039	–	4.422 ± 0.042	–	6.997 ± 0.048	–	10.63 ± 0.057	–	19.04 ± 0.085	–	–	15.72 ± 0.085	22.8 ± 0.091	32.04 ± 0.12	44.56 ± 0.16	60.79 ± 0.22	80.87 ± 0.28	vapor or sublimation pressure (408.15 K): 92.43 ± 0.32 kPa
CCc1ccccc1 [ethylbenzene]	–	2.223 ± 0.019	–	3.746 ± 0.041	4.712 ± 0.029	5.967 ± 0.03	7.448 ± 0.031	9.251 ± 0.028	11.41 ± 0.032	13.79 ± 0.04	20.42 ± 0.06	29.11 ± 0.073	–	–	–	–	47.75 ± 0.1	–	85.64 ± 0.17	–
